From the METLIN SMRT retention time set (Domingo-Almenara et al. 2019) come the findings set out here.

Structures are written as SMILES.

The series can be described thus: gradient 5% acetonitrile 3 min, to 50% in 2 min, to 85% in 15 min, held 3 min, 100 µL/min. As to conditions: column: Zorbax Extend-C18 2.1 x 50 mm; eluents: water / acetonitrile, 0.1% formic acid. In a few lines:
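Data were gathered over 3 months by HPLC coupled to a quadrupole time-of-flight mass spectrometer, operated in positive and negative ionization mode. Mixtures of ~100 pure standards ran on a Zorbax Extend-C18 column (2.1 × 50 mm, 1.8 μm) at 100 μL/min, with water and acetonitrile each containing 0.1% formic acid and dead and dwell volumes of 40 μL and 900 μL. Retention time was read from adduct peaks picked by computer and checked manually.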
`Cc1c(-c2nnc(C(=O)NCCCN3CCCCCC3)o2)oc2ccccc12` came in with an RP-LC retention time of 674 s.

Consider `COc1cccc(NC(=O)N2CCN(Cc3nc4ccc(Cl)cc4o3)CC2)c1`, for which the RP-LC retention time is 726 s.

In the case of `O=C([C@@H]1C[C@H](F)CN1S(=O)(=O)c1cccc(Cl)c1)N1CCc2ccccc2C1`, the RP-LC retention time came out at 927 s.

Take `O=C(CCCc1nc2cccnc2n1Cc1ccccc1)N1CCN(c2ncccn2)CC1`: the RP-LC retention time amounted to 563 s.

Regarding `CC(C)(C)c1ccc(C(=O)Nc2ccc(S(N)(=O)=O)cc2)cc1`, the RP-LC retention time worked out at 932 s.

`CCCNc1nc(-c2ccc(C3CCCCC3)cc2)cs1` gave an RP-LC retention time of 1170 s.

In the case of `Cc1ccc(NC(=O)CN2C(=O)CCS(=O)(=O)c3ccccc32)c(C)c1`, the RP-LC retention time was found to be 768 s.

Molecule `Cc1ccc(C2Cn3nnc(-c4nc(-c5ccccc5)no4)c3CO2)c(C)c1` (stereo not drawn) had an RP-LC retention time of 1240 s.

`COc1cccc(-c2ccc(=O)n(Cc3nc(-c4cccc(Cl)c4)no3)n2)c1` displayed an RP-LC retention time of 1080 s.

`CC1CN(c2ccc(Cl)cc2)c2nc3c(c(=O)n(CCN4CCOCC4)c(=O)n3C)n2C1` (stereo not drawn) gave an RP-LC retention time of 686 s.

As for `COc1cccc(-c2noc(CN3C(=O)COc4cc(C(C)(C)C)ccc43)n2)c1`, the RP-LC retention time amounted to 1200 s.

The molecule `Cc1ccc(C)c(NC(=O)Cn2nc(N3CCCC(C)C3)c3ccccc3c2=O)c1` (stereo not drawn) returned an RP-LC retention time of 1160 s.

`COc1cc(-c2oc3cc(O)cc(O)c3c(=O)c2O[C@@H]2O[C@H](CO)[C@@H](O)[C@H](O)[C@H]2O)cc(OC)c1O` showed an RP-LC retention time of 619 s.

Consider `O=C(NC1CCCCC1)c1ccc2c(c1)CCN2C(=O)C1CC1`, for which the RP-LC retention time is 824 s.

`CCOC(=O)c1ccc(NC(=O)CCc2ccc3nc(CC)[nH]c3c2)cc1`: the RP-LC retention time is 646 s.

Take `COc1ccc(-c2noc(C3CC(=O)N(c4ccc(OC)c(Cl)c4)C3)n2)c(OC)c1` (stereo not drawn): the RP-LC retention time turned out to be 1010 s.

`CCOC(=O)C1=CN(CC(=O)NCc2ccc(Cl)cc2)S(=O)(=O)N=C1C` returned an RP-LC retention time of 906 s.

In turn, `O=C(NC(c1ccccc1)c1nnc(N2CCCC2)o1)c1ccc(F)c(Cl)c1` (stereo not drawn) had an RP-LC retention time of 899 s.

For the molecule `COc1ccc(C(O)CN2CCN(c3cccc(OC)c3)CC2)cc1` (stereo not drawn), the RP-LC retention time was 647 s.

Consider `Cc1ccc(-c2ccc(N3CCN(c4ccccn4)CC3)nn2)cc1S(=O)(=O)N1CCC(C)CC1`, for which the RP-LC retention time stood at 743 s.

For the molecule `Cc1ccc(C(=O)Nc2ccc(-c3nnc4n3CCCC4)cc2)s1`, the RP-LC retention time stood at 680 s.

Regarding `Cn1nc(C(=O)NCc2ccc3c(c2)OCO3)c2c1CCN(C(=O)COc1ccc(Cl)cc1)C2`, the RP-LC retention time is 856 s.

Molecule `CCOc1ccc2cccc(NC(=O)Cc3cccc(OC)c3)c2n1` showed an RP-LC retention time of 1120 s.

As to `Cc1cccc(OCc2nc(-c3ccc4c(c3)nnn4CCC(=O)N3CCCC3)no2)c1`, the RP-LC retention time came out at 923 s.

Molecule `COc1ccc(OC)c(S(=O)(=O)N2CCCC(C(=O)NCc3ccccc3OC)C2)c1` (stereo not drawn) showed an RP-LC retention time of 854 s.

In turn, `CC(=O)Nc1ccc(C(=O)Nc2ccccc2N)cc1` yielded an RP-LC retention time of 629 s.

Regarding `O=C(Cc1ccc(Br)cc1)N1CCCN(c2cc(-c3ccc(F)cc3)[nH]n2)CC1`, the RP-LC retention time is 773 s.

Consider `O=C(CCC1CCN(S(=O)(=O)c2ccccc2F)CC1)NC1CC1`, for which the RP-LC retention time worked out at 752 s.

In the case of `CCC(CC)C(=O)Nc1c(-c2ccc(OC)cc2)nc2cc(C)ccn12`, the RP-LC retention time is 672 s.

Molecule `Cc1ccc2nc(-c3ccccc3)c(Nc3ccc4c(c3)OCO4)n2c1` gave an RP-LC retention time of 717 s.

For the molecule `CCCc1nc2c(c(=O)n1CC(=O)NCc1cccs1)CCN(Cc1ccccc1)C2`, the RP-LC retention time stood at 641 s.

`COCCN1C(=O)c2cccn2CC1CNC(=O)c1sc(C)nc1C` (stereo not drawn) showed an RP-LC retention time of 606 s.

In the case of `O=C(Cn1nc(C(=O)N2CCCC2)c2ccccc21)N1CCN(Cc2ccc3c(c2)OCO3)CC1`, the RP-LC retention time stood at 622 s.

Turning to `COc1ccc(NC(=O)N(C)CC2CCOCC2)c(C)c1`, the RP-LC retention time was determined as 670 s.

`Cc1ccn2c(NC(=O)Cc3ccccc3)c(-c3ccc(F)cc3)nc2c1` registered an RP-LC retention time of 669 s.

`COc1cc(OC)c(NC(=O)C2CC(=O)N(c3cccc(NC(C)=O)c3)C2)cc1Cl` (stereo not drawn) gave an RP-LC retention time of 712 s.

Regarding `COc1ccc(Cc2nn3c(CSc4ccccc4)nnc3s2)cc1OC`, the RP-LC retention time came to 865 s.

On to `O=C(NCc1ccccc1)c1cn(-c2ccc(-c3nc(C4CC4)no3)cn2)cn1`, for which the RP-LC retention time worked out at 915 s.

For `O=C(NC1CCCCC1)C1c2cccn2CC(=O)N1Cc1ccc(F)cc1` (stereo not drawn), the RP-LC retention time turned out to be 918 s.

Molecule `O=C(c1ccc(Cn2cncn2)cc1)N1CCN(c2ccccc2F)CC1` gave an RP-LC retention time of 712 s.

Regarding `Cc1nc(-c2csc(S(=O)(=O)N3CCCC(C(=O)Nc4ccc5c(c4)OCCO5)C3)c2)no1` (stereo not drawn), the RP-LC retention time came to 880 s.

For `O=C(Nc1nc(-c2ccc(F)cc2)cs1)C1CC1`, the RP-LC retention time is 884 s.

Turning to `Cc1ccc(-n2ncc3c(NCCN(C)C)ncnc32)cc1Cl`, the RP-LC retention time is 669 s.

`O=C(Nc1ccccc1OC(F)F)c1ccc(S(=O)(=O)N2CCOCC2)cc1` registered an RP-LC retention time of 841 s.

The molecule `CCn1c(SC)nnc1-c1nn(C)c2c1CN(C(=O)Cc1ccc(F)cc1)CC2` yielded an RP-LC retention time of 771 s.

In turn, `CCc1nnc(-c2cc(NC(=O)c3ccnn3C)c(C)s2)o1` registered an RP-LC retention time of 774 s.

`Cc1cc(Cl)ccc1OCc1nc(-c2ccc3c(c2)ncn3CCC(=O)N2CCCC2)no1` had an RP-LC retention time of 889 s.

Consider `O=C(Nc1ccc2ncccc2c1)Nc1ccc2ncccc2c1`, for which the RP-LC retention time was 604 s.

The molecule `O=C(Cn1c(=O)oc2ccc(C(=O)N3CCCC3)cc21)NCCCc1ccccc1` registered an RP-LC retention time of 764 s.

The molecule `COc1ccc(N2CCN(c3cc(SCC(=O)NCCC4=CCCCC4)ncn3)CC2)cc1` had an RP-LC retention time of 1080 s.

`COc1cc(OC)cc(-c2nc(-c3ccc4nnn(C(C)C)c4c3)no2)c1` yielded an RP-LC retention time of 1160 s.

As to `O=C(CSc1ccc(N2CCCC(C(=O)NC3CC3)C2)nn1)Nc1ccc2c(c1)CCC2` (stereo not drawn), the RP-LC retention time worked out at 691 s.

For the molecule `Cc1ccc2nc3c(C(=O)O)cccn3c(=O)c2c1`, the RP-LC retention time worked out at 677 s.

As to `O=C1NCCCCCCN(Cc2ccncc2)[C@@H]2CN(C3CCC3)CC[C@H]12`, the RP-LC retention time is 559 s.

Regarding `CC(=O)N1CCOc2cc(S(=O)(=O)N3CCCCCC3c3cccc(F)c3)ccc21` (stereo not drawn), the RP-LC retention time worked out at 999 s.

With `O=C(c1ccccc1Sc1nccnc1Oc1ccccc1)N1CCN(c2ccccn2)CC1`, the RP-LC retention time was determined as 691 s.

As to `O=C(Cn1cnc2nc(N3CCCC(C(=O)NC4CC4)C3)sc2c1=O)Nc1ccc2c(c1)CCC2` (stereo not drawn), the RP-LC retention time was 744 s.

`CN(CC1(C)CCOCC1)S(=O)(=O)c1cccc(C(F)(F)F)c1`: the RP-LC retention time came to 980 s.
